Laboratory results published in US12678445B2, “Methods for treating glioblastoma” (BOARD OF REGENTS, THE UNIVERSITY OF TEXAS SYSTEM, priority 2020, dated 2026).

Tests used:
[1] = tested on: murine GBM cell lines (GL261); test: GBM (GL261) tumor bearing mice: tumor growth and survival; assay type: in vivo; settings: FIG. 4
Source text: (§1) To test this hypothesis, the inventors crossed LysM^cre (Jackson Laboratory. 004781) and KDm6B^fl/fl (Jackson Laboratory, 029615) mice to generate LysM^creKDm6B^fl/fl mice. The inventors inoculated murine GBM cell lines (GL261) into the LysM^creKDm6B^fl/fl mice (FIG. 5). […] The pre-clinical data provide a strong rationale of testing KDM6B inhibitor in clinic in combination with immune checkpoint therapy.

myeloid cells = test: Macrophage / myeloid cell phenotype in GBM tumor bearing mice; assay type: in vivo; settings: compared with myeloid specific depletion of KDM6B (increasing type I and type II IFN responses and antigen presenting pathways)
Source text: as §1

With `CCOC(=O)CCNc1cc(N2CCc3ccccc3CC2)nc(-c2ccccn2)n1` [GSK-J4] the survival [1] was “improved survival”, the tumor growth [1] was “attenuated tumor growth” and the “changes of macrophage phenotype” value (myeloid cells) was “could recapitulate the changes of macrophage phenotype”.
